Results published in US8211929B2, “Pyrimidine derivatives as kinase modulators and method of use” (Exelixis, Inc., priority 2004, dated 2012).
Where two headings read alike, the source gives them in different places.

Assays:
[1] = target: T1, (Homo sapiens, UniProt P08069); assay: IGF1R kinase assay (LCCA), IGF 0P; type: biochemical
T1 construct: human IGF1R kinase domain residues M954-C1367; made in house; host or cells: baculovirus expression (insect cells)
Protocol: (§1) Kinase activity and compound inhibition are investigated using one or more of the three assay formats described below. The ATP concentrations for each assay are selected to be close to the Michaelis-Menten constant (KM) for each individual kinase. Dose-response experiments are performed at 10 different inhibitor concentrations in a 384-well plate format. […] Y=Min+(Max−Min)/(1+(X/IC50)^H) Equation (2)
(§2) IGF1R kinase biochemical activity was assessed using a Luciferase-Coupled Chemiluminescent Kinase assay (LCCA) format. Kinase activity was measured as the percent ATP remaining following the kinase reaction. Remaining ATP was detected by luciferase-luciferin-coupled chemiluminescence. Specifically, the reaction was initiated by mixing test compounds, 3 μM ATP, 4 μM poly EY peptide and 4 nM IGF1R (baculovirus expressed human IGF1R kinase domain residues M954-C1367) in a 20 uL assay buffer (20 mM Tris-HCL pH7.5, 10 mM MgCl2, 0.02% Triton X-100, 1 mM DTT, 2 mM MnCl2). The mixture is incubated at ambient temperature for 2 hours after which 20 uL luciferase-luciferin mix is added and the chemiluminescent signal read using a Wallac Victor^2 reader.

IGF 3P = target: T2, IGF 3P (Homo sapiens, UniProt P08069); assay: IGF1R kinase assay (LCCA), IGF 3P; type: biochemical
T2 construct: human IGF1R kinase domain residues M954-C1367; made in house; host or cells: baculovirus expression (insect cells)
Protocol: as §1, §2

T1 sequence (P08069 954-1367): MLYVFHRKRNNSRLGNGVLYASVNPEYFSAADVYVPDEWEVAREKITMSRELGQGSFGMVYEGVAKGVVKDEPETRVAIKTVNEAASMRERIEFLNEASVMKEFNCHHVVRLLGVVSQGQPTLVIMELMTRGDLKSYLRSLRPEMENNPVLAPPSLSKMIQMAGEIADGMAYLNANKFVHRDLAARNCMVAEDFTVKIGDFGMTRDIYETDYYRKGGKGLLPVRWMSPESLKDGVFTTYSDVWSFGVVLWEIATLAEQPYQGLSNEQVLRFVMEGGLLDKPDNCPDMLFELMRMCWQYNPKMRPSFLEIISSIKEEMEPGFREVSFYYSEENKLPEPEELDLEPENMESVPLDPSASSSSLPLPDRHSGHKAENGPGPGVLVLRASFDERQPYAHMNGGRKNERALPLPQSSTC
T2 sequence (P08069 954-1367): as above

Structure (SMILES) | IC50 ([1]; IGF1R kinase LCCA assay) | IC50 (IGF 3P; IGF1R kinase LCCA assay) | IC50 [1] | IC50 (IGF 3P)
Cc1cc(Nc2nc(NCc3cc(-c4ccccc4)no3)ncc2Br)[nH]n1 [Example 19] | 500 to 5000 nM | 500 to 5000 nM | – | –
CCN(CC)CCNc1cc(Nc2cc(C(C)C)[nH]n2)nc(NCc2cc(-c3ccccc3)no2)n1 [Example 592, N^4-[2-(diethylamino)ethyl]-N^6-[5-(1-methylethyl)-1H-pyrazol-3-yl]-N^2-[(3-phenylisoxazol-5-yl)methyl]pyrimidine-2,4,6-triamine] | – | – | 50 to 500 nM | < 50 nM
Cc1cc(Nc2cc(C3CC3)[nH]n2)nc(NCc2cc(-c3cccc(Cl)c3)no2)n1 [Example 538] | 50 to 500 nM | 50 to 500 nM | – | –
Cc1cc(Nc2cc(C3CC3)[nH]n2)nc(NCc2cc(-c3ccc(F)c(F)c3)no2)n1 [Example 621, N^4-(5-cyclopropyl-1H-pyrazol-3-yl)-N^2-{[3-(3,4-difluorophenyl)isoxazol-5-yl]methyl}-6-methylpyrimidine-2,4-diamine] | – | – | 50 to 500 nM | < 50 nM
Cc1cc(Nc2cc(C3CC3)[nH]n2)nc(NCc2cc(-c3ccc(F)cn3)no2)n1 [Example 639, N^4-(5-cyclopropyl-1H-pyrazol-3-yl)-N^2-{[3-(5-fluoropyridin-2-yl)isoxazol-5-yl]methyl}-6-methylpyrimidine-2,4-diamine] | – | – | 500 to 5000 nM | 500 to 5000 nM
Cc1cc(Nc2ccccc2)nc(Nc2ccc(N3CCOCC3)cc2)n1 [Example 567] | 500 to 5000 nM | 500 to 5000 nM | – | –
Cc1cc(Nc2cc(C3CC3)n[nH]2)nc(Nc2ccc(CCC(=O)NCCCN3CCCCC3)cc2)n1 [Example 51] | > 5000 nM | < 50 nM | – | –
CN1CCN(c2ncc(Br)c(Nc3cc(C4CC4)[nH]n3)n2)CC1 [Example 249] | > 5000 nM | 500 to 5000 nM | – | –
Fc1c(Cl)cccc1Nc1ncc(Br)c(Nc2cc(C3CC3)n[nH]2)n1 [Example 241] | 500 to 5000 nM | 500 to 5000 nM | – | –
CC(=O)Nc1ccc(Cl)c(Nc2nccc(Nc3cc(C4CC4)[nH]n3)n2)c1 [Example 227] | 500 to 5000 nM | 500 to 5000 nM | – | –
Cc1cc(Nc2cc(C3CC3)n[nH]2)nc(Nc2cc(Br)cc(C(F)(F)F)c2)n1 [Example 301] | > 5000 nM | > 5000 nM | – | –
CN1CCN(C(=O)Cc2ccc(Nc3ncc(Br)c(Nc4cc(C5CC5)n[nH]4)n3)cc2)CC1 [Example 37] | 500 to 5000 nM | 50 to 500 nM | – | –
Cc1cc(Nc2cc(C3CC3)[nH]n2)nc(NCc2cc(-c3cccnc3)no2)n1 [Example 610, N^4-(5-cyclopropyl-1H-pyrazol-3-yl)-6-methyl-N^2-[(3-pyridin-3-ylisoxazol-5-yl)methyl]pyrimidine-2,4-diamine] | – | – | 50 to 500 nM | < 50 nM
Brc1cnc(Nc2ccc(N3CCOCC3)cc2)nc1Nc1ccc2c(c1)CNCC2 [Example 534] | 500 to 5000 nM | < 50 nM | – | –
Brc1cnc(NCc2csc(-c3cccs3)n2)nc1Nc1cc(C2CC2)[nH]n1 [Example 218] | 500 to 5000 nM | 500 to 5000 nM | – | –
c1ccc(-c2cc(CNc3nc(Nc4cc(C5CC5)[nH]n4)cc(OCCN4CCOCC4)n3)on2)cc1 [Example 501] | 50 to 500 nM | < 50 nM | – | –
Nc1ncnc2c1c(-c1ccc(NC(=O)C3(C(=O)Nc4ccc(F)cc4)CC3)cc1)cn2C1CC(CN2CCCC2)C1 (stereo not drawn) [Example 343] | 500 to 5000 nM | 500 to 5000 nM | – | –
CC(C)c1cc(CNc2ncc(Br)c(Nc3cc(C4CC4)[nH]n3)n2)on1 [Example 65] | 500 to 5000 nM | < 50 nM | – | –
CC(=O)Nc1ccc(Cl)c(Nc2ncc(Br)c(Nc3cc(C)on3)n2)c1 [Example 57] | 500 to 5000 nM | < 50 nM | – | –
c1cc(Nc2cc(C3CC3)n[nH]2)nc(Nc2ccc(N3CCOCC3)cc2)n1 [Example 224] | 500 to 5000 nM | 500 to 5000 nM | – | –
c1ccc(CN2CCc3c(nc(Nc4ccc(N5CCOCC5)cc4)nc3Nc3cc(C4CC4)[nH]n3)C2)cc1 [Example 281] | > 5000 nM | > 5000 nM | – | –
